Source: US3963706A, “Sulphamoylphenyl-imidazolidinones” (Ed. Geistlich Sohne A.G. fur Chemische Industrie, priority 1972, dated 1976)

Legend:
[1] = test system: Grand Mal; assay: Electro shock test, rat; type: in vivo
From the text: (§1) In general, the majority of the available antiepileptic drugs are active against either Grand Mal or Petit Mal epilepsy but not against both forms.
(§2) As mentioned above, the compounds according to the present invention show interesting activity against both Grand Mal and Petit Mal forms of epilepsy. This activity is indicated respectively by the electro shock test and the Cardiazol shock test.

[2] = test system: Grand Mal; assay: Electro shock test, mouse; type: in vivo
From the text: as §1, §2

[3] = test system: Petit Mal; assay: Cardiazol shock test; type: in vivo; conditions: species not given
From the text: as §1, §2

[4] = type: in vivo; conditions: up to 500 mg/kg
From the text: It will be noted that the ratio of ED50 /LD50 for the compounds according to the invention is particularly favourable.

`NS(=O)(=O)c1ccc(N2CN(C3CCCCC3)CC2=O)c(Cl)c1` [Example 19, 1-Cyclohexyl-3-(2-chloro-4-sulphamoylphenyl)-imidazolidin-4-one] showed an ED50 [1] of 25 mg/kg, an ED50 [2] of 10 mg/kg and an ED50 [3] of 200 mg/kg.

Compound `NS(=O)(=O)c1ccc(N2CN(c3ccccc3)CC2=O)c(Cl)c1` [Example 3, 1-Phenyl-3-(2-Chloro-4-sulphamoylphenyl)-imidazolidin-4-one] has an ED50 [1] of 5 mg/kg, an ED50 [2] of 1 mg/kg and an ED50 [3] of 50 mg/kg. The sedative activity [4] was “virtually no sedative activity”.

With `NS(=O)(=O)c1ccc(N2CN(c3ccccc3)CC2=O)c(F)c1` [Example 2, 1-Phenyl-3-(2-fluoro-4-sulphamoylphenyl)-imidazolidin-4-one] the ED50 [1] was 10 mg/kg, the ED50 [2] was 10 mg/kg and the ED50 [3] was 50 mg/kg.

Compound `NS(=O)(=O)c1ccc(N2C(=O)CN(c3ccccc3)C2=O)c(Cl)c1` [Example 8, 1-Phenyl-3-(2-chloro-4-sulphamoylphenyl)-hydantoin] has an ED50 [1] of 10 mg/kg, an ED50 [2] of 5 mg/kg and an ED50 [3] of 100 mg/kg.

Work on `NS(=O)(=O)c1ccc(N2CN(c3ccccc3)CC2=O)c(Br)c1` [Example 5, 1-Phenyl-3-(2-bromo-4-sulphamoylphenyl)imidazolidin-4-one] yielded an ED50 [1] of 5 to 10 mg/kg, an ED50 [2] of 5 mg/kg and an ED50 [3] of 50 mg/kg.

Compound `CC1C(=O)N(c2ccc(S(N)(=O)=O)cc2Cl)CN1c1ccccc1` (stereo not drawn) [Example 18, 5-Methyl-1-phenyl-3-(2-chloro-4-sulphamoylphenyl)-imidazolidin-4-one] has an ED50 [1] of 10 mg/kg and an ED50 [3] of 50 mg/kg.
